According to patent US11685729B2, “C5a receptor modulators” (IDORSIA PHARMACEUTICALS LTD., priority 2018, dated 2023):
Read-outs that look alike come from different tables or passages of the source.

Target: C5AR1 (Homo sapiens (Human), UniProt P21730)
Assay: In vitro assay: PathHunter beta-arrestin antagonist assay in CHO-K1 C5AR1 beta-arrestin cell line, stimulated with C5a agonist
[1] = read-out: C5aR IC50, CHO-K1 C5AR1 beta-arrestin cell line, 1-10 nM C5a agonist, geometric mean values

Chain of C5AR1 (P21730 whole entry): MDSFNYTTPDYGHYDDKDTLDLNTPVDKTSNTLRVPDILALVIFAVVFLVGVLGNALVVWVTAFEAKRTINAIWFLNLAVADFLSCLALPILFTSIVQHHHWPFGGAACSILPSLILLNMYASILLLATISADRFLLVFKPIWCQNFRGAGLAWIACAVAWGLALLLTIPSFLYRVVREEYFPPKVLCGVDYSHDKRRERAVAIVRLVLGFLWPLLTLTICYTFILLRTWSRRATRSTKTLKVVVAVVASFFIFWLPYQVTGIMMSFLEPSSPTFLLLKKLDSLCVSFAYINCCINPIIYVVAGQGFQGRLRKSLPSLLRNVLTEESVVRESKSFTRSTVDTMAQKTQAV
Experimental: 5 μl Antagonist at 6-fold end concentration or DMSO control is added to assay medium and subsequently 5 μl 1-10 nM C5a agonist at 6 fold end concentration. Cells are centrifuged for 1 min at 1000 rpm and incubated for 1.5 hour in at 37° C. Plates are equilibrated at room temperature for several minutes before adding 12 μI/well Detection Reagent (PathHunter Detection Kit, DiscoverX, Cat #93-0001). Plates are centrifuged for 1 min at 1000 rpm and incubated for 45 minutes at RT before being measured on a Fluostar Optima, BMG Labtech. IC50 values are calculated from a serial dilution range of antagonist using inhouse software and given in nmol/l.
The calculated IC50 values may fluctuate depending on the daily cellular assay performance. […] Average IC50 values from several measurements are given as geometric mean values.

Compound | IC50 [1] [nM] | IC50 [nM]
Cc1cccc(F)c1N1CCC(N2Cc3ccccc3N(Cc3ccccc3OC3CC3)C2=O)CC1 [Example 68, 1-(2-Cyclopropoxy-benzyl)-3-[1-(2-fluoro-6-methyl-phenyl)-piperidin-4-yl]-3,4-dihydro-1H-quinazolin-2-one] | 66 | 
Cc1nn(C)c(N2CCC(N3Cc4ccccc4N(Cc4ccccc4C(F)(F)F)C3=O)CC2)c1C#N [Example 72, 1,3-Dimethyl-5-{4-[2-oxo-1-(2-trifluoromethyl-benzyl)-1,4-dihydro-2H-quinazolin-3-yl]-piperidin-1-yl}-1H-pyrazole-4-carbonitrile] | 2660 | 
Cc1nn(C)c(N2CCC(N3Cc4ccccc4N(Cc4ccccc4C(F)(F)F)C3=O)CC2)c1Cl [Example 73, 3-[1-(4-Chloro-2,5-dimethyl-2H-pyrazol-3-yl)-piperidin-4-yl]-1-(2-trifluoromethyl-benzyl)-3,4-dihydro-1H-quinazolin-2-one] | 1340 | 
Cc1cccc(F)c1N1CCCC(N2Cc3ccccc3N(Cc3ccccc3C(F)(F)F)C2=O)CC1 (stereo not shown) [Example 77, 3-[1-(2-Fluoro-6-methyl-phenyl)-azepan-4-yl]-1-(2-trifluoromethyl-benzyl)-3,4-dihydro-1H-quinazolin-2-one] | 175 | 
O=C1N(Cc2ccccc2C(F)(F)F)c2ccccc2CN1C1CCN(c2c(F)cccc2OC(F)(F)F)CC1 [Example 78, 3-[1-(2-Fluoro-6-trifluoromethoxy-phenyl)-piperidin-4-yl]-1-(2-trifluoromethyl-benzyl)-3,4-dihydro-1H-quinazolin-2-one] | 80 | 
Cc1cccc(Cl)c1N1CCC(N2Cc3ccccc3N(Cc3ccccc3C(F)(F)F)C2=O)CC1 [Example 79, 3-[1-(2-Chloro-6-methyl-phenyl)-piperidin-4-yl]-1-(2-trifluoromethyl-benzyl)-3,4-dihydro-1H-quinazolin-2-one] | 57 | 
Cc1cccc(F)c1N1CCC(N2Cc3ccccc3N(Cc3nnccc3OC(C)C)C2=O)CC1 [Example 80, 3-[1-(2-Fluoro-6-methyl-phenyl)-piperidin-4-yl]-1-(4-isopropoxy-pyridazin-3-ylmethyl)-3,4-dihydro-1H-quinazolin-2-one] |  | 1790
Cc1cccc(F)c1N1CC(N2Cc3ccccc3N(Cc3ccccc3C(F)(F)F)C2=O)C1 [Example 81, 3-[1-(2-Fluoro-6-methyl-phenyl)-azetidin-3-yl]-1-(2-trifluoromethyl-benzyl)-3,4-dihydro-1H-quinazolin-2-one] | 1280 | 
Cc1nc(C(F)(F)F)c(CN2C(=O)N(C3CCN(c4c(C)cccc4F)CC3)Cc3ccccc32)s1 [Example 83, 3-[1-(2-Fluoro-6-methyl-phenyl)-piperidin-4-yl]-1-(2-methyl-4-trifluoromethyl-thiazol-5-ylmethyl)-3,4-dihydro-1H-quinazolin-2-one] | 1320 | 

The remaining molecules from weak to strong by IC50 [1], led by results:

IC50 [1] [nM] | IC50 [nM] | Compound
55 |  | Cc1cccc(F)c1N1CCC(N2Cc3ccccc3N(Cc3ccccc3Cl)C2=O)CC1 [Example 75, 1-(2-Chloro-benzyl)-3-[1-(2-fluoro-6-methyl-phenyl)-piperidin-4-yl]-3,4-dihydro-1H-quinazolin-2-one]
50 |  | O=C1N(Cc2ccccc2C(F)(F)F)c2ccccc2CN1C1CCN(c2c(F)cccc2C(F)(F)F)CC1 [Example 76, 3-[1-(2-Fluoro-6-trifluoromethyl-phenyl)-piperidin-4-yl]-1-(2-trifluoromethyl-benzyl)-3,4-dihydro-1H-quinazolin-2-one]
17 |  | Cc1cccc(F)c1N1CCC(N2Cc3ccccc3N(Cc3ccccc3OC(F)(F)F)C2=O)CC1 [Example 74, 3-[1-(2-Fluoro-6-methyl-phenyl)-piperidin-4-yl]-1-(2-trifluoromethoxy-benzyl)-3,4-dihydro-1H-quinazolin-2-one]
13 |  | Cc1cccc(F)c1N1CCC(N2Cc3ccccc3N(Cc3ncccc3C(F)(F)F)C2=O)CC1 [Example 69, 3-[1-(2-Fluoro-6-methyl-phenyl)-piperidin-4-yl]-1-(3-trifluoromethyl-pyridin-2-ylmethyl)-3,4-dihydro-1H-quinazolin-2-one]
